Data set [1] addresses α-Glucosidase from Saccharomyces cervisiae. The data set is classed as biochemical. The settings on record: in vitro; phosphate buffer pH 6.8, 37° C., substrate 0.7 mM, absorbance at 400 nm; read-out: α-Glucosidase Inhibition (IC50 in μM). As to the method:
Assay Protocol for α-Glucosidase Inhibition (In Vitro α-Glucosidase Inhibition Assay)
α-Glucosidase inhibition assay was performed spectrophotometrically. α-Glucosidase from Saccharomyces cervisiae was dissolved in phosphate buffer (pH 6.8, 50 mM). Test compounds were dissolved in 70% DMSO. In 96-well plates, 20 μL of test sample, 20 μL of enzyme and 135 μL of buffer were added and incubated for 15 minutes at 37° C. After incubation, 25 μL, of p-nitrophenyl-α-D-glucopyranoside (0.7 mM, Sigma Aldrich) was added and the change in absorbance was monitored for 30 minutes at 400 nm. Test compound was replaced by DMSO (7.5% final) as control. Acarbose (Acarbose, Sigma Aldrich) was used as a standard inhibitor.

What is called IC50 is the point on the concentration scale where inhibition reaches its midpoint. Regarding `O=C(C[C@@H](c1ccccc1)c1c[nH]c2ccccc12)c1ccccc1` [Compound 3a, (S)-3 (1H-Indol-3-yl)-1,3-diphenylpropan-1-one], the IC50 in data set [1] was determined as 43.3 ± 0.92 µM.

For orientation: melting point means the temperature of the solid-liquid transition. Turning to `O=C(C[C@@H](c1ccc(Cl)cc1)c1c[nH]c2ccccc12)c1ccc2ccccc2c1` [Compound 3b, (S)-3-(4-Chlorophenyl)-3-(1H-indol-3-yl)-1-(naphthalen-2-yl)propan-1-one], the melting point is 237 to 241 °C. In data set [1], the IC50 was determined as 17.6 ± 0.98 µM. The matching figures for `Cc1cc(C)c([C@H](CC(=O)c2ccccc2)c2c[nH]c3ccccc23)c(C)c1` [Compound 3c, (S)-3-(1H-Indol-3-yl)-3-mesityl-1-phenylpropan-1-one]: 169 to 171 °C and 25.2 ± 1.96 µM. Compound `Cc1ccc([C@H](CC(=O)c2ccccc2)c2c[nH]c3ccccc23)cc1` [Compound 3d, (S)-3-(1H-Indol-3-yl)-1-phenyl-3-(p-tolyl)propan-1-one] yielded a melting point of 153 to 155 °C. The IC50 in data set [1] was found to be 24 ± 4 µM. `COc1ccc([C@H](CC(=O)c2ccccc2)c2c[nH]c3ccccc23)cc1` [Compound 3e, (S)-3-(1H-Indol-3-yl)-3-(4-methoxyphenyl)-1-phenylpropan-1-one] had a melting point of 134 to 136 °C. For the same compound, the IC50 in data set [1] came out at 27.1 ± 0.69 µM. Taken in the same sequence, the figures for `COc1ccc([C@H](CC(=O)c2ccc3ccccc3c2)c2c[nH]c3ccccc23)cc1` [Compound 3f, (S)-3-(1H-Indol-3-yl)-3-(4-methoxyphenyl)-1-(naphthalen-2-yl)propan-1-one] were 159 to 162 °C and 15.2 ± 0.58 µM. `O=C(C[C@@H](c1ccccc1)c1c[nH]c2ccccc12)c1ccc2ccccc2c1` [Compound 3g, (S)-3-(1H-Indol-3-yl)-1-(naphthalen-2-yl)-3-phenylpropan-1-one] showed a melting point of 166 to 169 °C. Moreover, the IC50 in data set [1] is 43.9 ± 0.51 µM. The matching figures for `O=C(C[C@@H](c1ccc(Cl)cc1)c1c[nH]c2ccccc12)c1ccccc1` [Compound 3h, (S)-3-(4-Chlorophenyl)-3-(1H-indol-3-yl)-1-phenylpropan-1-one]: 189 to 192 °C and 37.9 ± 0.86 µM. The matching figures for `Cc1cc(C)c([C@H](CC(=O)c2ccc3ccccc3c2)c2c[nH]c3ccccc23)c(C)c1` [Compound 3i, (S)-3-(1H-Indol-3-yl)-3-mesityl-1-(naphthalen-2-yl)propan-1-one]: 227 to 229 °C and 15.1 ± 0.4 µM. Consider `Cc1ccc([C@H](CC(=O)c2ccc3ccccc3c2)c2c[nH]c3ccccc23)cc1` [Compound 3j, (S)-3-(1H-Indol-3-yl)-1-(naphthalen-2-yl)-3-(p-tolyl)propan-1-one], for which the melting point lay in the range of 174 to 177 °C. In addition, the IC50 in data set [1] was 18.1 ± 1.9 µM. The matching figures for `O=C(C[C@@H](c1cccs1)c1c[nH]c2ccccc12)c1ccccc1` [Compound 3k, (R)-3-(1H-Indol-3-yl)-1-phenyl-3-(thiophen-2-yl)propan-1-one]: 112 to 115 °C and 21.8 ± 0.25 µM. As to `O=C(CC(c1ccc(Cl)cc1Cl)c1c[nH]c2ccccc12)c1ccccc1` (stereo not shown) [Compound 3l, 3-(2,4-dichlorophenyl)-3-(1H-indol-3-yl)-1-phenylpropan-1-one], the melting point was in the range of 110 to 112 °C. Besides, the IC50 in data set [1] worked out at 15.6 ± 0.17 µM. The matching figures for `O=C(CC(c1c(Cl)cccc1Cl)c1c[nH]c2ccccc12)c1ccccc1` (stereo not shown) [Compound 3m, 3-(2,6-dichlorophenyl)-3-(1H-indol-3-yl)-1-phenylpropan-1-one]: 119 to 121 °C and 4.3 ± 0.13 µM. The matching figures for `Cc1cccc(C(CC(=O)c2ccccc2)c2c[nH]c3ccccc23)c1` (stereo not shown) [Compound 3n, 3-(1H-indol-3-yl)-1-phenyl-3-(m-tolyl)propan-1-one]: 130 to 132 °C and 26.3 ± 0.48 µM.

On to `O=C(CC(c1cccs1)c1c[nH]c2ccccc12)c1ccc2ccccc2c1` (stereo not shown) [Compound 3o, 3-(1H-indol-3-yl)-1-(naphthalen-2-yl)-3-(thiophen-2-yl)propan-1-one], for which the IC50 in data set [1] was 11.8 ± 0.06 µM.

`O=C(CC(c1cccc([N+](=O)[O-])c1)c1c[nH]c2ccccc12)c1ccccc1` (stereo not shown) [Compound 3p, 3-(1H-indol-3-yl)-3-(3-nitrophenyl)-1-phenylpropan-1-one] came in with a melting point of 105 to 107 °C. The IC50 in data set [1] amounted to 34.6 ± 1.55 µM. For the compound `O=C(CC(c1ccc(Br)cc1)c1c[nH]c2ccccc12)c1ccccc1` (stereo not shown) [Compound 3q, 3-(4-bromophenyl)-3-(1H-indol-3-yl)-1-phenylpropan-1-one], the melting point fell in the range of 95 to 97 °C. Besides, the IC50 in data set [1] worked out at 24.9 ± 1.61 µM. The compound `O=C(CC(c1cccc(Br)c1)c1c[nH]c2ccccc12)c1ccccc1` (stereo not shown) [Compound 3r, 3-(3-bromophenyl)-3-(1H-indol-3-yl)-1-phenylpropan-1-one] came in with a melting point of 102 to 104 °C. Further, the IC50 in data set [1] came to 33.2 ± 0.75 µM.

The record behind these values is patent US9802894B2, “α-glucosidase inhibitors” (priority 2015, dated 2017).
